Measurements published in patent US11390591B2, “2,4,6-trisubstituted s-triazine compound, preparation method therefor, and use thereof” (Aluda Pharmaceuticals, Inc., priority 2016, dated 2022).
Where two headings read alike, the source gives them in different places.

Experiments:
Type in all cases: cell-based
[1] = tested on: human glioma U87 cells; assay: Tumor cell vacuolization (methuosis) scoring, U87; set-up: key to Vacuolation Score: 5 scores were given when obvious vacuolization occurred at 10 nM; 4 scores at 31.6 nM; 3 scores at 100 nM; 2 scores at 316 nM; 1 score at 1000 nM; 0 score was given if no vacuolation occurred at any concentration; settings: U87 cells; for Vacuolation Score: 0.01-3.160 μM, 96 hours, microscope
Method: FIG. 2. Vacuolization of tumor cells. 100 microliter culture medium (RPMI1640, 2 mmol glutamine, 10% fetal bovine serum) containing 10^3 human colon adenocarcinoma cells (HCT15) or human brain glioma cells (U87) and a solvent DMSO control or 100 nM #40 compound (L16) was plated into a 96-well cell culture plate, and cell morphological image was taken under a phase contrast microscope after cultured at 5% CO2 and 37° C. for 96 hours.
Some cells gradually became round and eventually bursted. These changes are consistent with the features of cell death by methuosis (FIG. 2).
In order to compare the ability of different compounds to cause cell vacuolization, 100 μL culture media (RPMI1640, 2 mmol glutamine, 10% fetal bovine serum) comprising 10^3 human glioma U87 cells and final concentrations of 0.01, 0.0316, 0.1, 0.316, 1.0, 3.160 μM respectively of the compounds to be tested were inoculated into a 96-well culture plate. After cultured at 5% CO2 and 37° C. for 96 hours, cell morphology was observed under a high-magnification microscope, and the ability of the compounds to cause cell vacuolization was scored. 5 scores were given when obvious vacuolization occurred at 10 nM, 4 scores at 31.6 nM, 3 scores at 100 nM, 2 scores at 316 nM, 1 score at 1000 nM, and 0 score was given if no vacuolation occurred at any concentration.

[2] = tested on: cell lines of human brain glioma (U87); assay: In vitro antineoplastic activity, MTT experiment, U87
Method: (§1) MTT, RPM1640 culture medium, fetal bovine serum, 96-well plate, CO2 thermostatic incubator, American BIO-RAD680 microplate reader, cell lines of human non-small cell lung cancer (H522), and cell lines of human brain glioma (U87) were all obtained commercially.
(§2) (1) Cell inoculation: A single cell suspension was prepared with culture media supplemented with 10% fetal bovine serum, plated into a 96-well plate with 5000 cells per well, each well having a volume of 100 μL, and cultured overnight.
(§3) (2) Preparation of compound solutions: a DMSO stock solution of a compound was diluted on a sterile bench with a culture medium into 5 concentrations to be tested, wherein a double dilution was employed between two adjacent concentrations.
(§4) (3) The compound solutions of various concentrations were added into the 96-well plate cultured overnight, with 100 μL added per well, triplicated wells for each concentration. Since the peripheral wells can have edge effect and are susceptible to contamination, no cells or compounds were added thereto; instead, 100 μL culture solution was added as a blank. Additionally, 100% wells were set to contain the cells and 100 μL culture media without any compound. The plates were incubated in a thermostatic incubator at 37° C. for 48 hours.
(§5) (4) Staining: 10 μL MTT solution (5 mg/mL, prepared with PBS) was added into the 96-well plate for staining. After incubation for 4 hours, centrifugation was performed at 2500 rpm for 10 minutes. Then, a multiple pipette was used to suck the culture solution out of the wells carefully without sucking out the cells while the pipette tip faced downward. 150 μL DMSO was added and shaken on a shaker for 5-10 minutes. Crystals were allowed to dissolve fully, and an OD value for each well was measured using the microplate reader at 570 nm. The inhibition rate was calculated as follows: Inhibition rate (%)=(average OD value of 100% wells−average OD value of compound wells)/(average OD value of 100% wells−average OD value of blank wells)×100%

[3] = tested on: cell lines of human non-small cell lung cancer (H522); assay: In vitro antineoplastic activity, MTT experiment, H522; settings: H522 cells, 48 hours, highest concentration tested 31.6 μM (>30: inhibition rate <50%)
Method: as §1, §2, §3, §4, §5

[4] = U87 cells, MTT, 48 hours, highest concentration tested 31.6 μM, read-out: IC50(μM) U87
[5] = ability to inhibit cell proliferation, U87 (FIG. 3), unit inferred, read-out: IC50

Row | Structure (SMILES) | Vacuolation Score [1] | IC50 [2, 4] [µM] | IC50 [2, 5] [µM] | IC50 [3] [µM] | ability to cause cell vacuolization (in words) ([1]; among the compounds tested)
1 | CN(C)C(=O)c1ccc(NC(=O)Nc2ccc(Nc3nc(/C=C/c4ccccc4)nc(N4CCOCC4)n3)cc2)cc1 [L29, (E)-N,N-dimethyl-4-(3-(4-(4-(morpholin-1-yl)-6-styrenyl-1,3,5-triazinyl-2-amino)phenyl)urea)benzamide] | 3.5 | 0.53 ± 0.02 | 0.75 | 6.51 ± 0.94 | 
2 | O=C(Nc1ccc(Cl)cc1)Nc1cccc(Nc2nc(/C=C/c3cccc(Cl)c3)nc(N3CCOCC3)n2)c1 [L25, (E)-1-(4-chlorophenyl)-3-(3-(4-(morpholin-1-yl)-6-(3-chlorostyrenyl)-1,3,5-triazinyl-2-amino)phenyl)urea] | 0 | 2.2 ± 0.21 | 2.2 | 2.53 ± 0.28 | 
3 | O=C(Nc1ccc(Nc2nc(/C=C/c3ccccc3)nc(N3CCOCC3)n2)cc1)Nc1ccc(C(=O)NCCN2CCCCC2)cc1 [L36, (E)-N-(2-(piperidin-1-yl)ethyl)-4-(3-(4-(4-(morpholin-1-yl)-6-styrenyl-1,3,5-triazinyl-2-amino)phenyl)urea)benzamide] | 1 (1 score at 1000 nM) | 1.11 ± 0.06 | 1.25 | 3.69 ± 0.44 | 
4 | O=C(Nc1ccc(Nc2nc(/C=C/c3ccccc3)nc(N3CCOCC3)n2)cc1)Nc1ccc(C(=O)NCCN2CCCC2)cc1 [L35, (E)-N-(2-(pyrrolidin-1-yl)ethyl)-4-(3-(4-(4-(morpholin-1-yl)-6-styrenyl-1,3,5-triazinyl-2-amino)phenyl)urea)benzamide] | 1 (1 score at 1000 nM) | 1.43 ± 0.1 | 2.1 | 4.14 ± 0.13 | 
5 | CN1CCN(c2nc(/C=C/c3ccccc3)nc(Nc3ccc(NC(=O)Nc4ccc(Cl)cc4)cc3)n2)CC1 [L3, (E)-1-(4-chlorophenyl)-3-(4-(4-(4-methylpiperazin-1-yl)-6-styrenyl-1,3,5-triazinyl-2-amino)phenyl)urea] | 0 | 10.6 ± 1.2 | > 10 | > 30 | 
6 | CC1CCN(C(=O)c2ccc(NC(=O)Nc3ccc(Nc4nc(/C=C/c5ccccc5)nc(N5CCOCC5)n4)cc3)cc2)CC1 [L30, (E)-1-(4-((4-methylpiperidin-1-yl)formyl)phenyl)-3-(4-(4-(morpholin-1-yl)-6-styrenyl-1,3,5-triazinyl-2-amino)phenyl)urea] | 0 | 0.87 ± 0.08 | 0.9 | 5.24 ± 1.33 | 
7 | CN1CCN(c2nc(/C=C/c3ccccc3)nc(Nc3ccc(NC(=O)Nc4ccc(F)cc4)cc3)n2)CC1 [L4, (E)-1-(4-fluorophenyl)-3-(4-(4-(4-methylpiperazin-1-yl)-6-styrenyl-1,3,5-triazinyl-2-amino)phenyl)urea] | 0 | 1.19 ± 0.07 | 1.19 | 1.92 ± 0.19 | 
8 | CN1CCN(c2nc(/C=C/c3ccc(Cl)cc3)nc(Nc3ccc(NC(=O)Nc4cccc(F)c4)cc3)n2)CC1 [L15, (E)-1-(3-fluorophenyl)-3-(4-(4-(4-methylpiperazin-1-yl)-6-(4-chlorostyrenyl)-1,3,5-triazinyl-2-amino)phenyl)urea] | 0 | 2.92 ± 0.21 | 2.91 | 4.26 ± 0.1 | 
9 | O=C(Nc1ccc(F)cc1)Nc1ccc(Nc2nc(/C=C/c3cccc(Cl)c3)nc(N3CCOCC3)n2)cc1 [L7, (E)-1-(4-fluorophenyl)-3-(4-(4-(morpholin-1-yl)-6-(3-chlorostyrenyl)-1,3,5-triazinyl-2-amino)phenyl)urea] | 4 (4 scores at 31.6 nM) | 1.33 ± 0.13 | 1.32 | 1.42 ± 0.12 | 
10 | CN1CCN(c2nc(/C=C/c3cccc(Cl)c3)nc(Nc3cccc(NC(=O)Nc4ccc(Cl)cc4)c3)n2)CC1 [L26, (E)-1-(4-chlorophenyl)-3-(3-(4-(4-methylpiperazin-1-yl)-6-(3-chlorostyrenyl)-1,3,5-triazinyl-2-amino)phenyl)urea] | 0 | 3.95 ± 0.67 | 3.94 | 5.48 ± 0.76 | 
11 | O=C(Nc1ccc(Cl)cc1)Nc1cccc(Nc2nc(/C=C/c3cccc([N+](=O)[O-])c3)nc(N3CCOCC3)n2)c1 [L27, (E)-1-(4-chlorophenyl)-3-(3-(4-(morpholin-1-yl)-6-(3-nitrostyrenyl)-1,3,5-triazinyl-2-amino)phenyl)urea] | 0 | 3.66 ± 0.55 | 3.66 | 2.21 ± 0.33 | 
12 | CN1CCN(C(=O)c2ccc(NC(=O)Nc3ccc(Nc4nc(/C=C/c5ccccc5)nc(N5CCOCC5)n4)cc3)cc2)CC1 [L31, (E)-1-(4-((4-methylpiperazin-1-yl)formyl)phenyl)-3-(4-(4-(morpholin-1-yl)-6-styrenyl-1,3,5-triazinyl-2-amino)phenyl)urea] | 2.5 | 0.23 ± 0.01 | 0.22 | 1.05 ± 0.04 | 
13 | CN1CCN(c2nc(/C=C/c3cccc([N+](=O)[O-])c3)nc(Nc3ccc(NC(=O)Nc4ccc(F)cc4)cc3)n2)CC1 [L19, (E)-1-(4-fluorophenyl)-3-(4-(4-(4-methylpiperazin-1-yl)-6-(3-nitrostyrenyl)-1,3,5-triazinyl-2-amino)phenyl)urea] | 0 | 1.62 ± 0.09 | 1.8 | 1.34 ± 0.22 | 
14 | O=C(Nc1ccc(Cl)cc1)Nc1ccc(Nc2nc(/C=C/c3ccccc3)nc(N3CCOCC3)n2)cc1 [L1, (E)-1-(4-chlorophenyl)-3-(4-(4-(morpholin-1-yl)-6-styrenyl-1,3,5-triazinyl-2-amino)phenyl)urea] | 5 (5 scores were given when obvious vacuolization occurred at 10 nM) | 4.79 ± 0.55 | 3.53 | 3.26 ± 0.34 | strongest ability to cause cell vacuolization
15 | O=C(Nc1ccc(Cl)cc1)Nc1ccc(Nc2nc(/C=C/c3cccc([N+](=O)[O-])c3)nc(N3CCCC3)n2)cc1 [L21, (E)-1-(4-chlorophenyl)-3-(4-(4-(pyrrolidin-1-yl)-6-(3-nitrostyrenyl)-1,3,5-triazinyl-2-amino)phenyl)urea] | 0 | 4.47 ± 0.39 | 4.47 | 7.3 ± 0.75 | 
16 | CN(C)CCCNC(=O)c1ccc(NC(=O)Nc2ccc(Nc3nc(/C=C/c4ccccc4)nc(N4CCOCC4)n3)cc2)cc1 [L34, (E)-N-(3-(dimethylamino)propyl)-4-(3-(4-(4-(morpholin-1-yl)-6-styrenyl-1,3,5-triazinyl-2-amino)phenyl)urea)benzamide] | 3.5 | 2.31 ± 0.29 | 3 | 4.91 ± 0.1 | 
17 | CN1CCN(c2nc(/C=C/c3cccc([N+](=O)[O-])c3)nc(Nc3ccc(NC(=O)Nc4ccc(Cl)cc4)cc3)n2)CC1 [L18, (E)-1-(4-chlorophenyl)-3-(4-(4-(4-methylpiperazin-1-yl)-6-(3-nitrostyrenyl)-1,3,5-triazinyl-2-amino)phenyl)urea] | 0 | 1.21 ± 0.07 | 1.21 | 2.31 ± 0.17 | 
18 | O=C(Nc1ccc(F)cc1)Nc1ccc(Nc2nc(/C=C/c3ccccc3)nc(N3CCOCC3)n2)cc1 [L2, (E)-1-(4-fluorophenyl)-3-(4-(4-(morpholin-1-yl)-6-styrenyl-1,3,5-triazinyl-2-amino)phenyl)urea] | 4.5 | 4.75 ± 0.87 | 4.74 | 2.8 ± 0.21 | 
